The record followed here is US20240066136A1, “MODIFIED PROTEINS AND PROTEIN DEGRADERS” (Cullgen (Shanghai), Inc., priority 2020, published 2024).

Sequence of Human DDB1 (Q16531 whole entry): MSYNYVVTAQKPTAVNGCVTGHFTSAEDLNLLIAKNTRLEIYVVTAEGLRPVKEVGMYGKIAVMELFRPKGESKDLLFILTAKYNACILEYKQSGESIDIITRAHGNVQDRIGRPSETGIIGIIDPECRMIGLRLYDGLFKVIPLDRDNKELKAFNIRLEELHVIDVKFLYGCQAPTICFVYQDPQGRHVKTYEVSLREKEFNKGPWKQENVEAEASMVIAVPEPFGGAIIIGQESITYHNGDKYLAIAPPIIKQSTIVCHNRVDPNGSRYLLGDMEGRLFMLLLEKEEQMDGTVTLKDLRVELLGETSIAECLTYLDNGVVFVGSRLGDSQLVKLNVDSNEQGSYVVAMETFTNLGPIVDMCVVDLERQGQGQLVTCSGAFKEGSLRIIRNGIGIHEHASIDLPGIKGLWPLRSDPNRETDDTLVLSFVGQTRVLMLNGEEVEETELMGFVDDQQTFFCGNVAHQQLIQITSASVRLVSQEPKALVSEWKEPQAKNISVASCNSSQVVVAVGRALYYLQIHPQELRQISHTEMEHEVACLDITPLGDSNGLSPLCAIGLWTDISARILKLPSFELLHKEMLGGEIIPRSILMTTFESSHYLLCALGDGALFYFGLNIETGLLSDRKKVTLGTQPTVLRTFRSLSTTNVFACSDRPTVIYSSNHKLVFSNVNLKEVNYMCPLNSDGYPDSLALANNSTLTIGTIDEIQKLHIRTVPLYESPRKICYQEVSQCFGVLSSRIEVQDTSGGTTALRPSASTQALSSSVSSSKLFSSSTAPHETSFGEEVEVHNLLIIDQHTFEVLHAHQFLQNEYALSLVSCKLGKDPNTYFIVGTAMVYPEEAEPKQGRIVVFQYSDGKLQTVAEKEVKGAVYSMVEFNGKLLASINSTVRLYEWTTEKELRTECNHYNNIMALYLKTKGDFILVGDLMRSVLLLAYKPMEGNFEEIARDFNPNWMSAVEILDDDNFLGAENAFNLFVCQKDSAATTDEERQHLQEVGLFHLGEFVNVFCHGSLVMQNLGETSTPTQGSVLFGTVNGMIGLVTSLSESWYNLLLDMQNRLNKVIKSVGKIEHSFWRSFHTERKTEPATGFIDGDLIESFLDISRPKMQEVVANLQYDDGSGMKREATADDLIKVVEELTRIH

The target in the first assay is Human DDB1 (Homo sapiens (Human), UniProt Q16531). In words: Surface plasmon resonance (SPR) binding assay to immobilized His-DDB1. Conditions: SPR, DDB1 binding moieties with linkers and/or target protein binding moiety; read-out: Binding (Kd). The essentials:
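Baculovirus-expressed His-DDB1 (High5 cells) amine-coupled to 11,000–13,000 RU on a CM5 chip; compounds injected in multi-cycle format without regeneration at 25° C in HBS-EP pH 7.4 (120 s association/dissociation). Double-referenced, solvent-corrected data fit to steady-state affinity model for KD.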
Background: SPR reads the build-up and loss of mass on a sensor chip optically.
A word on the Kd: it is the concentration at which binding is half-saturated. Consider `Cc1nc(NC(=O)c2ccccc2NC(=O)CCCCCN)sc1[N+](=O)[O-]` [BL-1, 2-(6-Aminohexanamido)-N-(4-methyl-5-nitrothiazol-2-yl)benzamide], for which the Kd is < 20 µM.

On to `Cc1nc(NC(=O)c2ccccc2NC(=O)CCOCCOCCOCCN)sc1[N+](=O)[O-]` [BL-2, 2-(3-(2-(2-(2-Aminoethoxy)ethoxy)ethoxy)propanamido)-N-(4-methyl-5-nitrothiazol-2-yl)benzamide], for which the Kd lay in the range of 20 to 100 µM.

Regarding `NCCOCCOCCOCCC(=O)Nc1ccccc1C(=O)Nc1ncc([N+](=O)[O-])s1` [BL-3, 2-(3-(2-(2-(2-Aminoethoxy)ethoxy)ethoxy)propanamido)-N-(5-nitrothiazol-2-yl)benzamide], the Kd is 20 to 100 µM.

Consider `CC(=O)Nc1cc(C(=O)NCCOCCOCCOCCN)ccc1C(=O)Nc1nc(C)c([N+](=O)[O-])s1` [BL-5, 2-acetamido-N^4-(2-(2-(2-(2-aminoethoxy)ethoxy)ethoxy)ethyl)-N^1-(4-methyl-5-nitrothiazol-2-yl)terephthalamide], for which the equilibrium dissociation constant (Kd) is 20 to 100 µM.

On to `CC(=O)Nc1cc(C(=O)NCCOCCOCCOCCN)ccc1C(=O)Nc1ncc([N+](=O)[O-])s1` [BL-6, 2-acetamido-N^4-(2-(2-(2-(2-aminoethoxy)ethoxy)ethoxy)ethyl)-N^1-(5-nitrothiazol-2-yl)terephthalamide], for which the Kd lay within 20 to 100 µM.

Regarding `CC(=O)Nc1cc(NCCCCCCCN)ccc1C(=O)Nc1nc(C)c([N+](=O)[O-])s1` [BL-7, 2-Acetamido-4-((7-aminoheptyl)amino)-N-(4-methyl-5-nitrothiazol-2-yl)benzamide], the Kd is 20 to 100 µM.

Turning to `CC(=O)Nc1cc(NCCOCCOCCOCCN)ccc1C(=O)Nc1nc(C)c([N+](=O)[O-])s1` [BL-8, 2-Acetamido-4-((2-(2-(2-(2-aminoethoxy)ethoxy)ethoxy)ethyl)amino)-N-(4-methyl-5-nitrothiazol-2-yl)benzamide], the Kd was 20 to 100 µM.

As to `CC(=O)Nc1cc(NCCOCCOCCOCCN)ccc1C(=O)Nc1ncc([N+](=O)[O-])s1` [BL-9, 2-Acetamido-4-((2-(2-(2-(2-aminoethoxy)ethoxy)ethoxy)ethyl)amino)-N-(5-nitrothiazol-2-yl)benzamide], the Kd is < 20 µM.

For the molecule `CC(=O)Nc1cc(NCCCCN)ccc1C(=O)Nc1ccc([N+](=O)[O-])s1` [BL-20, 2-Acetamido-4-((4-aminobutyl)amino)-N-(5-nitrothiophen-2-yl)benzamide], the Kd fell in the range of 20 to 100 µM.

For `CC(=O)Nc1cc(NCCOCCNC(=O)CN2CCC(n3nc(N4CCCc5cc(-c6cnn(C)c6)c(C(F)F)cc54)c4c3CCN(C(C)=O)C4)CC2)ccc1C(=O)Nc1nc(C)c([N+](=O)[O-])s1` [D-7, 2-Acetamido-4-((2-(2-(2-(4-(5-acetyl-3-(7-(difluoromethyl)-6-(1-methyl-1H-pyrazol-4-yl)-3,4-dihydroquinolin-1 (2H)-yl)-4,5,6,7-tetrahydro-1H-pyrazolo[4,3-c]pyridin-1-yl)piperidin-1-yl)acetamido)ethoxy)ethyl)amino)-N-(4-methyl-5-nitrothiazol-2-yl)benzamide], the Kd was 20 to 100 µM.

In the case of `CC(=O)Nc1cc(NCCOCCOCCOCCOCCNC(=O)CN2CCN(c3cccc(-c4cnc5ccc(N6CCC[C@@H]6c6cccc(F)c6)nn45)n3)CC2)ccc1C(=O)Nc1nc(C)c([N+](=O)[O-])s1` [D-23, (R)-2-Acetamido-4-((1-(4-(6-(6-(2-(3-fluorophenyl)pyrrolidin-1-yl)imidazo[1,2-b]pyridazin-3-yl)pyridin-2-yl)piperazin-1-yl)-2-oxo-6,9,12,15-tetraoxa-3-azaheptadecan-17-yl)amino)-N-(4-methyl-5-nitrothiazol-2-yl)benzamide], the Kd fell in the range of 20 to 100 µM.

Consider `CC(=O)Nc1cc(NCCNC(=O)C[C@@H]2N=C(c3ccc(Cl)cc3)c3c(sc(C)c3C)-n3c(C)nnc32)ccc1C(=O)Nc1nc(C)c([N+](=O)[O-])s1` [D-26, (S)-2-Acetamido-4-((2-(2-(4-(4-chlorophenyl)-2,3,9-trimethyl-6H-thieno[3,2-f][1,2,4]triazolo[4,3-a][1,4]diazepin-6-yl)acetamido)ethyl)amino)-N-(4-methyl-5-nitrothiazol-2-yl)benzamide], for which the Kd lay in the range of 20 to 100 µM.

For the molecule `CC(=O)Nc1cc(NCCCCCCCNC(=O)C[C@@H]2N=C(c3ccc(Cl)cc3)c3c(sc(C)c3C)-n3c(C)nnc32)ccc1C(=O)Nc1nc(C)c([N+](=O)[O-])s1` [D-29, (S)-2-Acetamido-4-((7-(2-(4-(4-chlorophenyl)-2,3,9-trimethyl-6H-thieno[3,2-f][1,2,4]triazolo[4,3-a][1,4]diazepin-6-yl)acetamido)heptyl)amino)-N-(4-methyl-5-nitrothiazol-2-yl)benzamide], the Kd was in the range of 20 to 100 µM.

As for `CC(=O)Nc1cc(NCCCCCCCCCCNC(=O)C[C@@H]2N=C(c3ccc(Cl)cc3)c3c(sc(C)c3C)-n3c(C)nnc32)ccc1C(=O)Nc1nc(C)c([N+](=O)[O-])s1` [D-31, (S)-2-Acetamido-4-((10-(2-(4-(4-chlorophenyl)-2,3,9-trimethyl-6H-thieno[3,2-f][1,2,4]triazolo[4,3-a][1,4]diazepin-6-yl)acetamido)decyl)amino)-N-(4-methyl-5-nitrothiazol-2-yl)benzamide], the Kd is 20 to 100 µM.

`CC(=O)Nc1cc(NCCOCCNC(=O)C[C@@H]2N=C(c3ccc(Cl)cc3)c3c(sc(C)c3C)-n3c(C)nnc32)ccc1C(=O)Nc1nc(C)c([N+](=O)[O-])s1` [D-32, (S)-2-Acetamido-4-((2-(2-(2-(4-(4-chlorophenyl)-2,3,9-trimethyl-6H-thieno[3,2-f][1,2,4]triazolo[4,3-a][1,4]diazepin-6-yl)acetamido)ethoxy)ethyl)amino)-N-(4-methyl-5-nitrothiazol-2-yl)benzamide]: the Kd was 20 to 100 µM.

The same assay, now with this note: SPR, steady state affinity model, 25° C.; read-out: Binding (DDB1 binder activities, Kd).
Take `CCCCNc1ccc(OCC)c(C(=O)Nc2ncc([N+](=O)[O-])s2)c1` [B-155, 5-(Butylamino)-2-ethoxy-N-(5-nitrothiazol-2-yl)benzamide]: the Kd is > 100 µM.

For the molecule `COc1ccc(C(=O)Nc2ncc([N+](=O)[O-])s2)c(C)c1` [B-156, 4-Methoxy-2-methyl-N-(5-nitrothiazol-2-yl)benzamide], the Kd was > 100 µM.

Take `Cc1cccc(C)c1C(=O)Nc1ncc([N+](=O)[O-])s1` [B-157, 2,6-Dimethyl-N-(5-nitrothiazol-2-yl)benzamide]: the Kd is > 100 µM.

Take `CCc1ccc(C(=O)Nc2ncc([N+](=O)[O-])s2)c(C)c1` [B-158, 4-Ethyl-2-methyl-N-(5-nitrothiazol-2-yl)benzamide]: the Kd lay within 20 to 100 µM.

On to `CCOc1cccc(C)c1C(=O)Nc1ncc([N+](=O)[O-])s1` [B-159, 2-Ethoxy-6-methyl-N-(5-nitrothiazol-2-yl)benzamide], for which the Kd is > 100 µM.

As to `CCCCNc1ccc(C(=O)Nc2ncc([N+](=O)[O-])s2)c(OCC)c1` [B-160, 4-(Butylamino)-2-ethoxy-N-(5-nitrothiazol-2-yl)benzamide], the Kd was in the range of 20 to 100 µM.

On to `Cc1cc(NC(C)C)ccc1C(=O)Nc1ncc([N+](=O)[O-])s1` [B-161, 4-(Isopropylamino)-2-methyl-N-(5-nitrothiazol-2-yl)benzamide], for which the Kd is > 100 µM.

With `Cc1cc(N2CCOCC2)ccc1C(=O)Nc1ncc([N+](=O)[O-])s1` [B-162, 2-Methyl-4-morpholino-N-(5-nitrothiazol-2-yl)benzamide], the Kd was > 100 µM.

With `Cc1cc(N2CCN(C)CC2)ccc1C(=O)Nc1ncc([N+](=O)[O-])s1` [B-163, 2-Methyl-4-(4-methylpiperazin-1-yl)-N-(5-nitrothiazol-2-yl)benzamide], the Kd is > 100 µM.

For the molecule `Cc1cc(C(C)C)ccc1C(=O)Nc1ncc([N+](=O)[O-])s1` [B-164, 4-Isopropyl-2-methyl-N-(5-nitrothiazol-2-yl)benzamide], the Kd is > 100 µM.

As to `CCCCNc1ccc(C(=O)Nc2ncc([N+](=O)[O-])s2)c(C)c1` [B-165, 4-(Butylamino)-2-methyl-N-(5-nitrothiazol-2-yl)benzamide], the Kd was in the range of 20 to 100 µM.

Consider `CNc1ccc(C(=O)Nc2ncc([N+](=O)[O-])s2)c(C)c1` [B-166, 2-Methyl-4-(methylamino)-N-(5-nitrothiazol-2-yl)benzamide], for which the Kd fell in the range of 20 to 100 µM.

In the case of `Cc1cc(N(C)C)ccc1C(=O)Nc1ncc([N+](=O)[O-])s1` [B-167, 4-(Dimethylamino)-2-methyl-N-(5-nitrothiazol-2-yl)benzamide], the Kd is > 100 µM.

As to `CCNc1cccc(OCC)c1C(=O)Nc1ncc([N+](=O)[O-])s1` [B-168, 2-Ethoxy-6-(ethylamino)-N-(5-nitrothiazol-2-yl)benzamide], the Kd was > 100 µM.

For `CCNc1cccc(C)c1C(=O)Nc1ncc([N+](=O)[O-])s1` [B-169, 2-(Ethylamino)-6-methyl-N-(5-nitrothiazol-2-yl)benzamide], the Kd fell in the range of 20 to 100 µM.

For the molecule `CC(=O)Oc1cccc(C)c1C(=O)Nc1ncc([N+](=O)[O-])s1` [B-170, 3-Methyl-2-((5-nitrothiazol-2-yl)carbamoyl)phenyl acetate], the Kd was > 100 µM.

`Cc1cc(F)ccc1C(=O)Nc1ncc([N+](=O)[O-])s1` [B-171, 4-Fluoro-2-methyl-N-(5-nitrothiazol-2-yl)benzamide]: the dissociation constant (Kd) was 20 to 100 µM.

Consider `Cc1ccc(C(=O)Nc2ncc([N+](=O)[O-])s2)c(C)c1` [B-172, 2,4-Dimethyl-N-(5-nitrothiazol-2-yl)benzamide], for which the Kd was 20 to 100 µM.

Turning to `Cc1ccc(C)c(C(=O)Nc2ncc([N+](=O)[O-])s2)c1` [B-174, 2,5-Dimethyl-N-(5-nitrothiazol-2-yl)benzamide], the dissociation constant Kd is < 20 µM.

As to `Cc1cnc(NC(=O)c2ccccc2C)s1` [B-175, 2-Methyl-N-(5-methylthiazol-2-yl)benzamide], the Kd is < 20 µM.

In the case of `Cc1ccccc1C(=O)Nc1nccs1` [B-176, 2-Methyl-N-(thiazol-2-yl)benzamide], the Kd was < 20 µM.
